Data taken from patent US20100184809A1, “Heterocyclic FXR Binding Compounds” (PHENEX PHARMACEUTICALS AG, priority 2006, published 2010).
≈ marks a conversion by molar mass, not a printed value.

What was measured:
[1] = Plasma protein binding assay (equilibrium dialysis); assay type: in vitro ADME; conditions: 37° C., extrapolated fraction unbound
Method: Equilibrium dialysis is used to determine the extent of binding of a compound to plasma proteins. A semi-permeable membrane separates a protein-containing compartment from a protein-free compartment. The system is allowed to equilibrate at 37° C. The test compound present in each compartment is quantified by LC-MS/MS. The extent of binding is reported as a fraction unbound (fu) value which is calculated as fu=1−(PC−PF)/PC. PC=Test compound concentration in protein-containing compartment. PF=Test compound concentration in protein-free compartment. In addition to using whole plasma, the plasma protein binding assay can be performed using two other ratios of plasma (10% or 50% plasma in buffer v/v). The following equations are used to convert from a fraction unbound at 10% or 50% to a fraction unbound at 100%: […]

[2] = Rat microsomal stability assay; assay type: in vitro ADME; conditions: liver microsomes, 37° C., NADPH, 45 minute, read-out: Rat liver microsome clearance
Method: Compound stability towards rat liver microsomes was determined as follows: The microsomes are incubated with the test compound at 37° C. in the presence of the co-factor, NADPH, which initiates the reaction. The reaction is terminated by the addition of methanol. Following centrifugation, the supernatant is analysed on the LC-MS/MS. The disappearance of test compound is monitored over a 45 minute time period. The In peak area ratio (compound peak area/internal standard peak area) is plotted against time and the gradient of the line determined. Finally, Intrinsic clearance CLint is computed by the following equations: elimination rate konstant (k)=−gradient; t1/2 (min)=0.693/k; V (μl/mg)=volume of incubation (μl)/protein in incubation (mg); CLint (μl/min/mg protein)=V*0.693/t1/2.

[3] = Rat hepatocyte stability assay; assay type: in vitro ADME; conditions: hepatocytes, 37° C., 60 minute, read-out: Rat hepatocyte clearance
Method: Compound stability towards rat hepatocytes was determined as follows: The hepatocytes are incubated with the test compound at 37° C. Samples are removed at the appropriate time points into methanol to terminate the reaction. Following centrifugation, the supernatant is analysed by LC-MS/MS. The disappearance of test compound is monitored over a 60 minute time period. The In peak area ratio (compound peak area/internal standard peak area) is plotted against time and the gradient of the line determined. Finally, half life t1/2 and Intrinsic clearance CLint is computed by the following equations: elimination rate konstant (k)=−gradient; t1/2 (min)=0.693/k; V (μl/10^6 cells)=volume of incubation (μl)/number of cells (*10^6); CLint (μl/min/10^6cells protein)=V*0.693/t1/2.

[4] = target: T1, human FXRalpha ligand binding domain (LBD) (Homo sapiens, UniProt Q96RI1); experiment: FRET activity assay (ligand mediated cofactor peptide interaction, LANCE); assay type: biochemical; conditions: GST-FXR-LBD / biotinylated SRC-1 peptide (676-700)
T1 construct: made in house; host or cells: E. coli BL21(DE3), vector pDEST15
T1 sequence (Q96RI1 187-472 isoform Q96RI1-2): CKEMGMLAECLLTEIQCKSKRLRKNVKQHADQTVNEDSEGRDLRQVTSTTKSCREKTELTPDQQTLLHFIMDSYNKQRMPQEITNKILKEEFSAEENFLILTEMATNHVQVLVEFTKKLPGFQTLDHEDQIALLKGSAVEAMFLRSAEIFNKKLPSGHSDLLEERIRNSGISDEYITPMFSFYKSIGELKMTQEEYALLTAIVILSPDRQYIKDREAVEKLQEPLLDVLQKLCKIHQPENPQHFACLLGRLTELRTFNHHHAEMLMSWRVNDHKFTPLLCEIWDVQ
Method: Determination of a ligand mediated cofactor peptide interaction to quantify ligand binding to the nuclear receptor Farnesoid X Receptor (FXR) was performed as follows:
Preparation of human farnesoid X receptor (FXR) alpha ligand binding domain: The human FXRalpha ligand binding domain (LBD) was expressed in E. coli strain BL21(DE3) as an N-terminally glutathione-[…] (GST) tagged fusion protein. The DNA encoding the FXR ligand binding domain was cloned into vector pDEST15 (Invitrogen). Expression was under control of an IPTG inducible T7 promoter. The amino acid boundaries of the ligand binding domain were amino acids 187-472 of Database entry NM_005123 (RefSeq). Expression and purification of the FXR-LBD: An overnight preculture of a transformed E. coli strain was diluted 1:20 in LB-Ampicillin medium and grown at 30° C. to an optical density of OD600=0.4-0.6. Gene expression was then induced by addition of 0.5 mM IPTG. Cells were incubated an additional 6 h at 30° C., 180 rpm. Cells were collected by centrifugation (7000×g, 7 min, room temperature). Per liter of original cell culture, cells were resuspended in 10 ml lysis buffer (50 mM Glucose, 50 mM Tris pH 7.9, 1 mM EDTA and 4 mg/ml lysozyme) and left on ice for 30 min. Cells were then subjected to sonication and cell debris removed via centrifugation (22000×g, 30 min, 4° C.). Per 10 ml of supernatant 0.5 ml prewashed Glutathione 4B sepharose slurry (Qiagen) was added and the suspension kept slowly rotating for 1 h at 4° C. Glutathione 4B sepharose beads were pelleted by centrifugation (2000 g, 15 sec, 4° C.) and washed twice in wash buffer (25 mM Tris, 50 mM KCl, 4 mM MgCl2 and 1M NaCl). The pellet was resuspended in 3 ml elution buffer per liter of original culture (elution buffer: 20 mM Tris, 60 mM KCl, 5 mM MgCl2 and 80 mM glutathione added immediately prior to use as powder). The suspension was left rotating for 15 min at 4° C., the beads pelleted and eluted again with half the volume of elution buffer than the first time. The eluates were pooled and dialysed overnight in 20 mM Hepes buffer (pH 7.5) containing 60 mM KCl, 5 mM MgCl2 as well as 1 mM dithiothreitol and 10% (v/v) glycerol. The protein was analysed by SDS-Page.
The method measures the ability of putative ligands to modulate the interaction between the purified bacterial expressed FXR ligand binding domain (LBD) and a synthetic biotinylated peptide based on residues 676-700 of SRC-1 (LCD2, 676-700). The sequence of the peptide used was B-[…]-COOH where the N-terminus was biotinylated (B). The ligand binding domain (LBD) of FXR was expressed as fusion protein with GST in BL-21 cells using the vector pDEST15. Cells were lysed by sonication, and the fusion proteins purified over glutathione sepharose (Pharmacia) according to the manufacturers instructions. For screening of compounds for their influence on the FXR-peptide interaction, the Perkin Elmer LANCE technology was applied. This method relies on the binding dependent energy transfer from a donor to an acceptor fluorophor attached to the binding partner of interest. For ease of handling and reduction of background from compound fluorescence LANCE technology makes use of generic fluorophore labels and time resolved detection Assays were done in a final volume of 2 5 μl in a 384 well plate, in a Tris-based buffer (20 mM Tris-HCl pH 7,5; 60 mM KCl, 5 mM MgCl2; 35 ng/μl BSA), containing 20-60 ng/well recombinantly expressed FXR-LBD fused to GST, 200-600 nM N-terminally biotinylated peptide, representing SRC1 aminoacids 676-700, 200 ng/well Streptavidin-xIAPC conjugate(Prozyme) and 6-10 ng/well Eu W1024 antiGST (Perkin Elmer). DMSO content of the samples was kept at 1%. After generation of the assay mix and diluting the potentially FXR modulating ligands, the assay was equilibrated for one hour in the dark at room temperature in FIA-plates black 384 well (Greiner). […]

[5] = Aqueous solubility assay, Protocol B, shake-flask method; assay type: physicochemical; conditions: aqueous buffer, 10 mM PBS buffer pH 7.4, 1% MeOH, room temperature, read-out: Aqueous solubility pH 7.4 (μM) (±standard deviation), shake-flask method
Method: Protocol B, shake-flask method:
Sample preparation: Sample and standard solution preparation is performed by mixing equal volumes of acetonitrile containing the internal standard (1 μM final concentration) with sample and calibration standard solutions (100 μl). After vigorously shaking (10 seconds) the samples are centrifuged (6000 g) for 5 minutes at 20° C. Aliquots of the particle-free supernatants are transferred to 200 μl sample vials and subsequently subjected to LC-MS/MS. Assay procedure: Test concentration was 100 μM in 10 mM PBS buffer pH 7.4 with a final MeOH concentration of 1%. The volume of the incubation solution was 500 μl. Depending on each compound's solubility in MeOH, the stock concentration and the incubation concentration was adapted. The test solutions in quadruplicates were shaken at 300 rpm over a 20 hours period at room temperature, followed by centrifugation at 20000 g for 30 minutes to separate the solid phase. 100 μl of particle free sample are added to 100 μl acetonitrile containing the internal standard. The aqueous solubility of the compounds was determined by measuring the concentration of the PBS buffer supernatant by HPLC-MS/MS.

fraction unbound [1] | microsomal CLint [2] [µL/min/mg] | hepatocyte CLint [3] [µL/min/1e6 cells] | IC50 [4] [nM] | solubility at 20 h [5] [µM] | Compound
0.0004 | 169 | 2.5 | ≤ 1000 |  | CC(C)c1onc(-c2c(Cl)cccc2Cl)c1COc1ccc(N(C)C(=O)c2ccc(-c3nnn[nH]3)cc2)c(C(F)(F)F)n1 [Example 25, N-(6-((3-(2,6-Dichlorophenyl)-5-isopropylisoxazol-4-yl)methoxy)-2-(trifluoromethyl)pyridin-3-yl)-N-methyl-4-(1H-tetrazol-5-yl)benzamide]
 |  |  | ≤ 1000 | 129 (≈ 72.4 µg/mL) | CC(C)c1onc(-c2c(Cl)cccc2Cl)c1COc1cnc(N(C)Cc2cccc(C(=O)O)c2)c(Cl)c1 [Example 32, 3-(((3-Chloro-5-((3-(2,6-dichlorophenyl)-5-isopropylisoxazol-4-yl)methoxy)pyridin-2-yl)(methyl)amino)methyl)benzoic acid]
